Assay results: patent publication US12509452B2, “Substituted-isoxazoline-containing aromatic compound, preparation method therefor, herbicidal composition and use thereof” (QINGDAO KINGAGROOT CHEMICAL COMPOUND CO., LTD., priority 2019, dated 2025)

What was measured:
Experiment in all cases: weeding effect in post-emergence stage
Assay type in all cases: in vivo
Alopecurus japonicus = test system: Alopecurus japonicus
Summary of the method: (§1)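 Read-out is fresh weight growth control rate, binned into levels 0-5 (Level 5 above 85%, Level 0 below 5%), recorded 3 weeks after spraying and averaged over three repeats. Plants were treated at the 2-3 leaf stage with 7.5-500 g a.i./ha plus methyl oleate synergist.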

Conyza japonica = test system: Conyza japonica
Summary of the method: as §1

Rorippa indica = test system: Rorippa indica
Summary of the method: as §1

Beckmannia syzigachne = test system: Beckmannia syzigachne
Summary of the method: as §1

Row | Structure (SMILES) | weeding effect in post-emergence stage, Alopecurus japonicus (activity level) (Alopecurus japonicus; dose 125 g a.i./ha) | weeding effect in post-emergence stage, Conyza japonica (activity level) (Conyza japonica; dose 15 g a.i./ha) | weeding effect in post-emergence stage, Conyza japonica (activity level) (Conyza japonica; dose 125 g a.i./ha) | weeding effect in post-emergence stage, Rorippa indica (activity level) (Rorippa indica; dose 15 g a.i./ha) | weeding effect in post-emergence stage, Rorippa indica (activity level) (Rorippa indica; dose 125 g a.i./ha) | weeding effect in post-emergence stage, Beckmannia syzigachne (activity level) (Beckmannia syzigachne; dose 15 g a.i./ha) | weeding effect in post-emergence stage, Beckmannia syzigachne (activity level) (Beckmannia syzigachne; dose 125 g a.i./ha) | weeding effect in post-emergence stage, Alopecurus japonicus (activity level) (Alopecurus japonicus; dose 7.5 g a.i./ha) | weeding effect in post-emergence stage, Conyza japonica (activity level) (Conyza japonica; dose 7.5 g a.i./ha) | weeding effect in post-emergence stage, Rorippa indica (activity level) (Rorippa indica; dose 7.5 g a.i./ha) | weeding effect in post-emergence stage, Beckmannia syzigachne (activity level) (Beckmannia syzigachne; dose 7.5 g a.i./ha) | weeding effect in post-emergence stage, Alopecurus japonicus (activity level) (Alopecurus japonicus; dose 15 g a.i./ha)
1 | CCOC(=O)C1(C2CC2)CC(c2cc(-n3c(=S)cc(C(F)(F)F)n(C)c3=O)c(F)cc2Cl)=NO1 (racemic) [Compound 231] | 5 (Level 5: growth control rate is above 85%) | 5 (Level 5: growth control rate is above 85%) | 5 (Level 5: growth control rate is above 85%) | 5 (Level 5: growth control rate is above 85%) | 5 (Level 5: growth control rate is above 85%) | 4 (Level 4: growth control rate is greater than or equal to 60% and less than 85%) | 5 (Level 5: growth control rate is above 85%) | – | – | – | – | –
2 | CCOC(=O)[C@]1(CC)CC(c2cc(-n3c(=O)n(C)c(=S)n(C)c3=O)c(F)cc2Cl)=NO1 [3(S)] | 5 (Level 5: growth control rate is above 85%) | – | 5 (Level 5: growth control rate is above 85%) | – | 5 (Level 5: growth control rate is above 85%) | – | 5 (Level 5: growth control rate is above 85%) | 5 (Level 5: growth control rate is above 85%) | 4 (Level 4: growth control rate is greater than or equal to 60% and less than 85%) | 5 (Level 5: growth control rate is above 85%) | 4 (Level 4: growth control rate is greater than or equal to 60% and less than 85%) | –
3 | CCC[C@@]1(C(=O)OCC)CC(c2cc(-n3c(=O)n(C)c(=S)n(C)c3=O)c(F)cc2Cl)=NO1 [4(S)] | 5 (Level 5: growth control rate is above 85%) | 5 (Level 5: growth control rate is above 85%) | 5 (Level 5: growth control rate is above 85%) | 5 (Level 5: growth control rate is above 85%) | 5 (Level 5: growth control rate is above 85%) | 5 (Level 5: growth control rate is above 85%) | 5 (Level 5: growth control rate is above 85%) | – | – | – | – | 5 (Level 5: growth control rate is above 85%)
4 | CCOC(=O)[C@@]1(C2CC2)CC(c2cc(-n3c(=O)n(C)c(=S)n(C)c3=O)c(F)cc2Cl)=NO1 [17(S)] | 5 (Level 5: growth control rate is above 85%) | – | 5 (Level 5: growth control rate is above 85%) | – | 5 (Level 5: growth control rate is above 85%) | – | 5 (Level 5: growth control rate is above 85%) | – | – | – | – | –
5 | CCOC(=O)[C@]1(CBr)CC(c2cc(-n3c(=O)n(C)c(=S)n(C)c3=O)c(F)cc2Cl)=NO1 [31(S)] | – | 5 (Level 5: growth control rate is above 85%) | – | 5 (Level 5: growth control rate is above 85%) | – | 5 (Level 5: growth control rate is above 85%) | – | – | – | – | – | 5 (Level 5: growth control rate is above 85%)
6 | CCOC(=O)[C@]1(C(F)(F)F)CC(c2cc(-n3c(=O)n(C)c(=S)n(C)c3=O)c(F)cc2Cl)=NO1 [33(S)] | – | 5 (Level 5: growth control rate is above 85%) | – | 5 (Level 5: growth control rate is above 85%) | – | 5 (Level 5: growth control rate is above 85%) | – | – | – | – | – | 5 (Level 5: growth control rate is above 85%)
7 | CCOC(=O)[C@@]1(CCF)CC(c2cc(-n3c(=O)n(C)c(=S)n(C)c3=O)c(F)cc2Cl)=NO1 [34(S)] | 5 (Level 5: growth control rate is above 85%) | – | 5 (Level 5: growth control rate is above 85%) | – | 5 (Level 5: growth control rate is above 85%) | – | 5 (Level 5: growth control rate is above 85%) | – | – | – | – | –
8 | CCOC(=O)COC[C@]1(C(=O)OCC)CC(c2cc(-n3c(=O)n(C)c(=S)n(C)c3=O)c(F)cc2Cl)=NO1 [54(S)] | – | 5 (Level 5: growth control rate is above 85%) | – | 5 (Level 5: growth control rate is above 85%) | – | 5 (Level 5: growth control rate is above 85%) | – | – | – | – | – | 5 (Level 5: growth control rate is above 85%)
9 | COC(=O)[C@@]1(c2ccccc2)CC(c2cc(-n3c(=O)n(C)c(=S)n(C)c3=O)c(F)cc2Cl)=NO1 [56(S)] | – | 5 (Level 5: growth control rate is above 85%) | – | 5 (Level 5: growth control rate is above 85%) | – | 5 (Level 5: growth control rate is above 85%) | – | – | – | – | – | 5 (Level 5: growth control rate is above 85%)
10 | COC(=O)[C@]1(Cc2ccccc2)CC(c2cc(-n3c(=O)n(C)c(=S)n(C)c3=O)c(F)cc2Cl)=NO1 [59(S)] | – | 5 (Level 5: growth control rate is above 85%) | – | 5 (Level 5: growth control rate is above 85%) | – | 5 (Level 5: growth control rate is above 85%) | – | – | – | – | – | 5 (Level 5: growth control rate is above 85%)
11 | CCOC(=O)[C@]1(CC)CC(c2cc(-n3c(=O)cc(C(F)(F)F)n(C)c3=O)c(F)cc2Cl)=NO1 [105(S)] | 5 (Level 5: growth control rate is above 85%) | – | 5 (Level 5: growth control rate is above 85%) | – | 5 (Level 5: growth control rate is above 85%) | – | 5 (Level 5: growth control rate is above 85%) | – | – | – | – | –
12 | CCOC(=O)[C@@]1(C2CC2)CC(c2cc(-n3c(=O)cc(C(F)(F)F)n(C)c3=O)c(F)cc2Cl)=NO1 [119(S)] | 5 (Level 5: growth control rate is above 85%) | – | 5 (Level 5: growth control rate is above 85%) | – | 5 (Level 5: growth control rate is above 85%) | – | 5 (Level 5: growth control rate is above 85%) | 5 (Level 5: growth control rate is above 85%) | 4 (Level 4: growth control rate is greater than or equal to 60% and less than 85%) | 4 (Level 4: growth control rate is greater than or equal to 60% and less than 85%) | 5 (Level 5: growth control rate is above 85%) | –
